# Measurements from PubChem BioAssay (NCI).
#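 Following 48 hours of exposure in 96-well plates, responses at five concentrations were used to interpolate endpoints linearly. TGI: total growth inhibition.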
# Columns and labels:
# Experiment in all cases: DTP human tumour cell line panel, 48 h
# [1] = system: COLO 205 colon
# [2] = system: TK-10 renal
# [3] = system: HOP-92 NSCLC
# [4] = system: HS 578T breast
# [5] = system: SF-268 CNS
# [6] = system: HCT-15 colon
# [7] = system: SK-MEL-28 melanoma
# [8] = system: SK-MEL-5 melanoma
# [9] = system: HCT-116 colon
# [10] = system: CAKI-1 renal
# [11] = system: HT29 colon
# [12] = system: M14 melanoma
# [13] = system: SR leukemia
# [14] = system: NCI/ADR-RES ovarian
# [15] = system: NCI-H226 lung
# [16] = system: DU-145 prostate
# [17] = system: NCI-H23 lung
# [18] = system: OVCAR-8 ovarian
# [19] = system: NCI-H522 lung
# [20] = system: SNB-19 CNS
# [21] = system: HL-60(TB) leukemia
# [22] = system: MALME-3M melanoma
# [23] = system: SF-295 CNS
# [24] = system: OVCAR-3 ovarian
# [25] = system: RXF 393 renal
# [26] = system: UACC-257 melanoma
# [27] = system: BT-549 breast
# [28] = system: SW-620 colon
# [29] = system: ACHN renal
# [30] = system: A549 NSCLC
# [31] = system: RPMI-8226 leukemia
# [32] = system: A498 renal
# [33] = system: SK-OV-3 ovarian
# [34] = system: MOLT-4 leukemia
# [35] = system: IGROV1 ovarian
# [36] = system: MDA-N
# [37] = system: MCF7 breast
# [38] = system: K-562 leukemia
# [39] = system: T-47D breast
# [40] = system: MDA-MB-435
# [41] = system: HOP-62 NSCLC
# [42] = system: SN12C renal
# [43] = system: KM12 colon
# [44] = system: MDA-MB-231 breast
# [45] = system: OVCAR-5 ovarian
# [46] = system: 786-0 renal
# [47] = system: UO-31 renal
# [48] = system: PC-3 prostate
# [49] = system: SK-MEL-2 melanoma
# [50] = system: U251 CNS
# [51] = system: UACC-62 melanoma
# [52] = system: EKVX NSCLC
# [53] = system: OVCAR-4 ovarian
# [54] = system: LOX IMVI melanoma
# [55] = system: CCRF-CEM leukemia
# [56] = system: NCI-H460 lung
# [57] = system: HCC-2998 colon
# [58] = system: SNB-75 CNS
# [59] = system: SF-539 CNS
structure (smiles),measurement,setting,value
O=C1NC(Cc2c[nH]c3ccccc23)C(=O)N2C(c3ccccc3)c3[nH]c4ccccc4c3C[C@@H]12 (stereo partly specified),TGI,[1],45.9 µM
same,TGI,[2],91.4 µM
same,TGI,[3],53.7 µM
same,TGI,[4],40.6 µM
same,TGI,[5],95.7 µM
same,TGI,[6],54.3 µM
same,TGI,[7],> 100 µM
same,TGI,[8],32.7 µM
same,TGI,[9],30.6 µM
same,TGI,[10],55.9 µM
same,TGI,[11],48.6 µM
same,TGI,[12],49.1 µM
same,TGI,[13],37.7 µM
same,TGI,[14],58.3 µM
same,TGI,[15],88.9 µM
same,TGI,[16],> 100 µM
same,TGI,[17],57.1 µM
same,TGI,[18],82.7 µM
same,TGI,[19],45.5 µM
same,TGI,[20],> 100 µM
same,TGI,[21],50.8 µM
same,TGI,[22],33.7 µM
same,TGI,[23],33.1 µM
same,TGI,[24],35.7 µM
same,TGI,[25],34.3 µM
same,TGI,[26],51.6 µM
same,TGI,[27],46.4 µM
same,TGI,[28],> 100 µM
same,TGI,[29],89.2 µM
same,TGI,[30],> 100 µM
same,TGI,[31],50.8 µM
same,TGI,[32],> 100 µM
same,TGI,[33],> 100 µM
same,TGI,[34],42.2 µM
same,TGI,[35],50.1 µM
same,TGI,[36],38.9 µM
same,TGI,[37],> 100 µM
same,TGI,[38],55.1 µM
same,TGI,[39],> 100 µM
same,TGI,[40],39.7 µM
same,TGI,[41],38.2 µM
same,TGI,[42],33.3 µM
same,TGI,[43],40 µM
same,TGI,[44],42.2 µM
same,TGI,[45],45.2 µM
same,TGI,[46],39.1 µM
same,TGI,[47],67.3 µM
same,TGI,[48],53.8 µM
same,TGI,[49],46.5 µM
same,TGI,[50],39.2 µM
same,TGI,[51],34.7 µM
same,TGI,[52],65.2 µM
same,TGI,[53],> 100 µM
same,TGI,[54],40.6 µM
CCn1c(=O)c2c3ccc(O)cc3oc2c2ccc(O)cc21,TGI,[1],> 100 µM
same,TGI,[2],> 100 µM
same,TGI,[3],> 100 µM
same,TGI,[4],70.4 µM
same,TGI,[5],> 100 µM
same,TGI,[6],> 100 µM
same,TGI,[7],> 100 µM
same,TGI,[8],> 100 µM
same,TGI,[9],74 µM
same,TGI,[10],> 100 µM
same,TGI,[11],> 100 µM
same,TGI,[12],> 100 µM
same,TGI,[13],> 100 µM
same,TGI,[14],> 100 µM
same,TGI,[15],> 100 µM
same,TGI,[16],> 100 µM
same,TGI,[17],> 100 µM
same,TGI,[18],> 100 µM
same,TGI,[19],> 100 µM
same,TGI,[20],> 100 µM
same,TGI,[55],> 100 µM
same,TGI,[22],> 100 µM
same,TGI,[23],> 100 µM
same,TGI,[24],> 100 µM
same,TGI,[25],> 100 µM
same,TGI,[26],> 100 µM
same,TGI,[56],> 100 µM
same,TGI,[27],> 100 µM
same,TGI,[28],> 100 µM
same,TGI,[29],88 µM
same,TGI,[57],> 100 µM
same,TGI,[30],> 100 µM
same,TGI,[32],84.5 µM
same,TGI,[33],> 100 µM
same,TGI,[34],> 100 µM
same,TGI,[35],> 100 µM
same,TGI,[36],> 100 µM
same,TGI,[37],> 100 µM
same,TGI,[38],> 100 µM
same,TGI,[39],69.1 µM
same,TGI,[40],> 100 µM
same,TGI,[41],> 100 µM
same,TGI,[42],> 100 µM
same,TGI,[43],> 100 µM
same,TGI,[58],> 100 µM
same,TGI,[44],> 100 µM
same,TGI,[46],> 100 µM
same,TGI,[47],78.3 µM
same,TGI,[48],> 100 µM
same,TGI,[50],> 100 µM
same,TGI,[51],> 100 µM
same,TGI,[52],7.39 µM
same,TGI,[53],> 100 µM
same,TGI,[59],> 100 µM
CN1CCC/C1=C1\C(=O)c2cccn2C1=O,TGI,[1],> 100 µM
same,TGI,[2],> 100 µM
same,TGI,[4],> 100 µM
same,TGI,[5],> 100 µM
same,TGI,[6],> 100 µM
same,TGI,[7],> 100 µM
same,TGI,[8],> 100 µM
same,TGI,[9],> 100 µM
same,TGI,[10],> 100 µM
same,TGI,[11],> 100 µM
same,TGI,[12],> 100 µM
same,TGI,[13],> 100 µM
same,TGI,[14],> 100 µM
same,TGI,[15],> 100 µM
same,TGI,[16],> 100 µM
same,TGI,[17],> 100 µM
same,TGI,[18],> 100 µM
same,TGI,[19],> 100 µM
same,TGI,[20],> 100 µM
same,TGI,[21],> 100 µM
same,TGI,[55],> 100 µM
same,TGI,[22],> 100 µM
same,TGI,[23],> 100 µM
same,TGI,[24],> 100 µM
same,TGI,[25],> 100 µM
same,TGI,[26],> 100 µM
same,TGI,[56],> 100 µM
same,TGI,[27],> 100 µM
same,TGI,[28],> 100 µM
same,TGI,[29],> 100 µM
same,TGI,[57],> 100 µM
same,TGI,[30],> 100 µM
same,TGI,[31],> 100 µM
same,TGI,[32],> 100 µM
same,TGI,[33],> 100 µM
same,TGI,[34],> 100 µM
same,TGI,[35],> 100 µM
same,TGI,[36],> 100 µM
same,TGI,[37],> 100 µM
same,TGI,[38],> 100 µM
same,TGI,[39],> 100 µM
same,TGI,[40],> 100 µM
same,TGI,[41],> 100 µM
same,TGI,[42],> 100 µM
same,TGI,[43],> 100 µM
same,TGI,[58],> 100 µM
same,TGI,[44],> 100 µM
same,TGI,[45],> 100 µM
same,TGI,[46],> 100 µM
same,TGI,[47],> 100 µM
same,TGI,[48],> 100 µM
same,TGI,[49],> 100 µM
same,TGI,[50],> 100 µM
same,TGI,[51],> 100 µM
same,TGI,[52],> 100 µM
same,TGI,[53],> 100 µM
same,TGI,[54],> 100 µM
NC(=S)N/N=C(/C(=O)Nc1nc2ccc([N+](=O)[O-])cc2s1)C1C(=O)NC(=S)NC1=O,TGI,[1],> 100 µM
same,TGI,[3],> 100 µM
same,TGI,[4],74.3 µM
same,TGI,[5],> 100 µM
same,TGI,[6],> 100 µM
same,TGI,[7],> 100 µM
same,TGI,[9],> 100 µM
same,TGI,[10],> 100 µM
same,TGI,[11],> 100 µM
same,TGI,[12],> 100 µM
same,TGI,[13],> 100 µM
same,TGI,[14],> 100 µM
same,TGI,[15],> 100 µM
same,TGI,[16],> 100 µM
same,TGI,[17],> 100 µM
same,TGI,[18],> 100 µM
same,TGI,[20],> 100 µM
same,TGI,[21],> 100 µM
same,TGI,[55],> 100 µM
same,TGI,[23],> 100 µM
same,TGI,[24],> 100 µM
same,TGI,[25],> 100 µM
same,TGI,[26],> 100 µM
same,TGI,[56],> 100 µM
same,TGI,[27],> 100 µM
same,TGI,[28],> 100 µM
same,TGI,[29],> 100 µM
same,TGI,[57],> 100 µM
same,TGI,[30],> 100 µM
same,TGI,[31],> 100 µM
same,TGI,[32],> 100 µM
same,TGI,[33],> 100 µM
same,TGI,[34],> 100 µM
same,TGI,[36],> 100 µM
same,TGI,[37],> 100 µM
same,TGI,[38],> 100 µM
same,TGI,[39],> 100 µM
same,TGI,[40],> 100 µM
same,TGI,[42],> 100 µM
same,TGI,[43],> 100 µM
same,TGI,[44],> 100 µM
same,TGI,[45],> 100 µM
same,TGI,[46],> 100 µM
same,TGI,[47],> 100 µM
same,TGI,[48],> 100 µM
same,TGI,[49],> 100 µM
same,TGI,[50],> 100 µM
same,TGI,[51],> 100 µM
same,TGI,[53],> 100 µM
same,TGI,[54],> 100 µM
same,TGI,[59],> 100 µM
